Measurements: patent US20120045393A1 (priority 2009, published 2012)
Non-standard residues stand in square brackets, D forms with d. Residues, ends and D or L forms follow the SMILES beside them. *: point of attachment. DOTA = O=C(O)CN1CCN(CC(=O)O)CCN(CC(=O)*)CCN(CC(=O)O)CC1; Bpa = N[C@@H](Cc1ccc(C(=O)c2ccccc2)cc1)C(=O)O; Ala(4-thiazolyl) = N[C@@H](Cc1cscn1)C(=O)O; d2Nal = N[C@H](Cc1ccc2ccccc2c1)C(=O)O; azaGly = NNC(=O)O; Sar = CNCC(=O)O

System: LHRH binding sites on human ovarian cancer cells (EFO-27)
Details: not given
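Also: Cell-associated radioactivity on confluent EFO-27 monolayers in 96-well plates, measured by microplate scintillation counting.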

**Q.** With `CN(CC(=O)N[C@@H](Cc1cscn1)C(=O)N[C@@H](Cc1c[nH]c2ccccc12)C(=O)N[C@@H](CO)C(=O)N[C@@H](Cc1cscn1)C(=O)N[C@H](CCCNC(=N)N)C(=O)N[C@@H](Cc1c[nH]c2ccccc12)C(=O)N[C@@H](Cc1ccc(C(=O)c2ccccc2)cc1)C(=O)N1CCC[C@H]1C(=O)NNC(N)=O)C(=O)CN1CCN(CC(=O)O)CCN(CC(=O)O)CCN(CC(=O)O)CC1` [BRU-2762] ({DOTA}-[Sar][Ala(4-thiazolyl)]WS[Ala(4-thiazolyl)][dR]W[Bpa]P[azaGly]-NH2; C-terminus assumed) as the molecule, how does the EC50 read?
**A.** 15 µM

**Q.** Which EC50 does the source give for `CNCC(=O)N[C@@H](CCCNC(=N)N)C(=O)N[C@@H](Cc1c[nH]c2ccccc12)C(=O)N[C@@H](CO)C(=O)N[C@@H](Cc1c[nH]cn1)C(=O)N[C@H](CCCNC(=N)N)C(=O)N[C@@H](Cc1c[nH]c2ccccc12)C(=O)N[C@@H](Cc1ccc(C(=O)c2ccccc2)cc1)C(=O)N1CCC[C@H]1C(=O)NCCNC(=O)CN1CCN(CC(=O)O)CCN(CC(=O)O)CCN(CC(=O)O)CC1` [compound 3103] here?
**A.** 0.17 ± 0.07 µM

**Q.** For `N=C(N)NCCC[C@H](NC(=O)[C@@H](Cc1ccc2ccccc2c1)NC(=O)CN1CCN(CC(=O)O)CCN(CC(=O)O)CCN(CC(=O)O)CC1)C(=O)N[C@@H](Cc1c[nH]c2ccccc12)C(=O)N[C@@H](CO)C(=O)N[C@@H](Cc1cscn1)C(=O)N[C@H](CCCNC(=N)N)C(=O)N[C@@H](Cc1c[nH]c2ccccc12)C(=O)N[C@@H](Cc1ccc(C(=O)c2ccccc2)cc1)C(=O)N1CCC[C@H]1C(=O)NNC(N)=O` [compound 2958], which EC50 is on record?
**A.** 0.71 µM

**Q.** For `CNCC(=O)N[C@@H](CCCNC(=N)N)C(=O)N[C@@H](Cc1c[nH]c2ccccc12)C(=O)N[C@@H](CO)C(=O)N[C@@H](Cc1c[nH]cn1)C(=O)N[C@H](CCCNC(=N)N)C(=O)N[C@@H](Cc1c[nH]c2ccccc12)C(=O)N[C@@H](Cc1ccc(C(=O)c2ccccc2)cc1)C(=O)N1CCC[C@H]1C(=O)NCCOCCOCCNC(=O)CN1CCN(CC(=O)O)CCN(CC(=O)O)CCN(CC(=O)O)CC1` [BRU-3043], which EC50 is on record?
**A.** 0.23 to 0.5 µM

**Q.** `N=C(N)NCCC[C@H](NC(=O)[C@@H](Cc1ccc2ccccc2c1)NC(=O)CN1CCN(CC(=O)O)CCN(CC(=O)O)CCN(CC(=O)O)CC1)C(=O)N[C@@H](Cc1c[nH]c2ccccc12)C(=O)N[C@@H](CO)C(=O)N[C@@H](Cc1c[nH]cn1)C(=O)N[C@H](CCCNC(=N)N)C(=O)N[C@@H](Cc1c[nH]c2ccccc12)C(=O)O` [BRU-3046, DO3A10CM-Dna12-Arg-Trp-Ser-His-Darg-Trp-OH] (HELM PEPTIDE1{[O=C(O)CN1CCN(CC(=O)O)CCN(CC(=O)[*:2])CCN(CC(=O)O)CC1].[O=C([C@@H](Cc1ccc2ccccc2c1)N[*:1])[*:2]].R.W.S.H.[dR].W}$$$$V2.0) was tested. Which EC50 did it give?
**A.** 15.8 µM

**Q.** Which EC50 does the source give for `CNCC(=O)N[C@@H](CCCNC(=N)N)C(=O)N[C@@H](Cc1c[nH]c2ccccc12)C(=O)N[C@@H](CO)C(=O)N[C@@H](Cc1c[nH]cn1)C(=O)N[C@H](CCCNC(=N)N)C(=O)N[C@@H](Cc1c[nH]c2ccccc12)C(=O)N[C@@H](Cc1ccc(C(=O)c2ccccc2)cc1)C(=O)N1CCC[C@H]1C(=O)NCCOCCNC(=O)CN1CCN(CC(=O)O)CCN(CC(=O)O)CCN(CC(=O)O)CC1` [compound 3039] here?
**A.** 0.28 ± 0.03 µM

**Q.** How did the EC50 turn out when `N=C(N)NCCC[C@H](NC(=O)[C@@H](Cc1ccc2ccccc2c1)NC(=O)[C@@H](N)CCCCNC(=O)CN1CCN(CC(=O)O)CCN(CC(=O)O)CCN(CC(=O)O)CC1)C(=O)N[C@@H](Cc1c[nH]c2ccccc12)C(=O)N[C@@H](CO)C(=O)N[C@@H](Cc1c[nH]cn1)C(=O)N[C@H](CCCNC(=N)N)C(=O)N[C@@H](Cc1c[nH]c2ccccc12)C(=O)N[C@@H](Cc1ccc(C(=O)c2ccccc2)cc1)C(=O)N1CCC[C@H]1C(=O)NNC(N)=O` [BRU 3098] was run?
**A.** 0.41 µM

**Q.** How did the EC50 turn out when `N=C(N)NCCC[C@H](NC(=O)[C@@H](Cc1ccc2ccccc2c1)NC(=O)CN1CCN(CC(=O)O)CCN(CC(=O)O)CCN(CC(=O)O)CC1)C(=O)N[C@@H](Cc1cccnc1)C(=O)N[C@@H](CO)C(=O)N[C@@H](Cc1c[nH]cn1)C(=O)N[C@H](CCCNC(=N)N)C(=O)N[C@@H](Cc1c[nH]c2ccccc12)C(=O)N[C@@H](Cc1ccc(C(=O)c2ccccc2)cc1)C(=O)N1CCC[C@H]1C(=O)NNC(N)=O` [compound 3109] was run?
**A.** 0.73 µM

Same assay, conditions: EFO-27 cells, competition with [125I-Tyr8]BRU-2477, 90 min

**Q.** For `N=C(N)NCCC[C@H](NC(=O)[C@@H](Cc1ccc2ccccc2c1)NC(=O)CN1CCN(CC(=O)O)CCN(CC(=O)O)CCN(CC(=O)O)CC1)C(=O)N[C@@H](Cc1c[nH]c2ccccc12)C(=O)N[C@@H](CO)C(=O)N[C@@H](Cc1c[nH]cn1)C(=O)N[C@H](CCCNC(=N)N)C(=O)N[C@@H](Cc1c[nH]c2ccccc12)C(=O)N[C@@H](Cc1ccc(C(=O)c2ccccc2)cc1)C(=O)N1C[C@@H](N)C[C@H]1C(=O)NNC(N)=O` [compound 3062], which EC50 is on record?
**A.** 0.32 µM

**Q.** With `N=C(N)NCCC[C@H](NC(=O)[C@@H](Cc1ccc2ccccc2c1)NC(=O)CN1CCN(CC(=O)O)CCN(CC(=O)O)CCN(CC(=O)O)CC1)C(=O)N[C@@H](Cc1c[nH]c2ccccc12)C(=O)N[C@@H](CO)C(=O)N[C@@H](Cc1c[nH]cn1)C(=O)N[C@H](CCCNC(=N)N)C(=O)N[C@@H](Cc1c[nH]c2ccccc12)C(=O)N[C@@H](Cc1ccc(C(=O)c2ccccc2)cc1)C(=O)N1CCCC[C@H]1C(=O)NNC(N)=O` [compound 2996] as the molecule, how does the EC50 read?
**A.** 0.35 µM

**Q.** `N=C(N)NCCC[C@H](NC(=O)CNC(=O)[C@@H]1CCCN1C(=O)[C@H](Cc1ccc(C(=O)c2ccccc2)cc1)NC(=O)[C@H](Cc1c[nH]c2ccccc12)NC(=O)[C@@H](CCCNC(=N)N)NC(=O)[C@H](Cc1c[nH]cn1)NC(=O)[C@H](CO)NC(=O)[C@H](Cc1c[nH]c2ccccc12)NC(=O)[C@H](CCCNC(=N)N)NC(=O)[C@@H](Cc1ccc2ccccc2c1)NC(=O)CN1CCN(CC(=O)O)CCN(CC(=O)O)CCN(CC(=O)O)CC1)C(N)=O` [compound 2969] ({DOTA}-[d2Nal]RWSH[dR]W[Bpa]PGR-NH2) was tested. Which EC50 did it give?
**A.** 0.24 µM

**Q.** How did the EC50 turn out when `CN(CC(=O)N[C@@H](Cc1c[nH]cn1)C(=O)N[C@@H](Cc1c[nH]c2ccccc12)C(=O)N[C@@H](CO)C(=O)N[C@@H](Cc1c[nH]cn1)C(=O)N[C@H](CCCNC(=N)N)C(=O)N[C@@H](Cc1c[nH]c2ccccc12)C(=O)N[C@@H](Cc1ccc(C(=O)c2ccccc2)cc1)C(=O)N1CCC[C@H]1C(=O)NNC(N)=O)C(=O)CN1CCN(CC(=O)O)CCN(CC(=O)O)CCN(CC(=O)O)CC1` [BRU-2443] was run?
**A.** 0.95 µM

**Q.** How did the EC50 turn out when `N=C(N)NCCC[C@H](NC(=O)[C@@H](Cc1ccc2ccccc2c1)NC(=O)CN1CCN(CC(=O)O)CCN(CC(=O)O)CCN(CC(=O)O)CC1)C(=O)N[C@@H](Cc1c[nH]c2ccccc12)C(=O)N[C@@H](CO)C(=O)N[C@@H](Cc1c[nH]cn1)C(=O)N[C@H](CCCNC(=N)N)C(=O)N[C@@H](Cc1c[nH]c2ccccc12)C(=O)N[C@@H](Cc1ccc(C(=O)c2ccccc2)cc1)C(=O)N1CCC[C@H]1C(=O)NCC(N)=O` [compound 3005] was run?
**A.** 0.66 µM

**Q.** With `N=C(N)NCCC[C@H](NC(=O)[C@@H](Cc1ccc2ccccc2c1)NC(=O)CN1CCN(CC(=O)O)CCN(CC(=O)O)CCN(CC(=O)O)CC1)C(=O)N[C@@H](Cc1c[nH]c2ccccc12)C(=O)N[C@@H](CO)C(=O)N[C@@H](Cc1c[nH]cn1)C(=O)N[C@H](CCCNC(=N)N)C(=O)N[C@@H](Cc1c[nH]c2ccccc12)C(=O)N[C@@H](Cc1ccc(C(=O)c2ccccc2)cc1)C(=O)N1CCC[C@H]1C(=O)NCC(=O)NCc1ccccc1` [compound 2988] as the molecule, how does the EC50 read?
**A.** 0.65 µM

Same assay, conditions: Table 5: modifications of amino acids at positions 1 and 2; in vitro binding on EFO-27 cells

**Q.** For `N=C(N)NCCC[C@@H](NC(=O)[C@H](Cc1c[nH]cn1)NC(=O)[C@H](CO)NC(=O)[C@H](Cc1c[nH]c2ccccc12)NC(=O)[C@H](Cc1c[nH]cn1)NC(=O)[C@@H](Cc1cccc2ccccc12)NC(=O)CNC(=O)CN1CCN(CC(=O)O)CCN(CC(=O)O)CCN(CC(=O)O)CC1)C(=O)N[C@@H](Cc1c[nH]c2ccccc12)C(=O)N[C@@H](Cc1ccc(C(=O)c2ccccc2)cc1)C(=O)N1CCC[C@H]1C(=O)NNC(N)=O` [BRU-2766], which EC50 is on record?
**A.** 0.62 µM

**Q.** For `CN(CC(=O)N[C@@H](Cc1cncn1C)C(=O)N[C@@H](Cc1c[nH]c2ccccc12)C(=O)N[C@@H](CO)C(=O)N[C@@H](Cc1c[nH]cn1)C(=O)N[C@H](CCCNC(=N)N)C(=O)N[C@@H](Cc1c[nH]c2ccccc12)C(=O)N[C@@H](Cc1ccc(C(=O)c2ccccc2)cc1)C(=O)N1CCC[C@H]1C(=O)NNC(N)=O)C(=O)CN1CCN(CC(=O)O)CCN(CC(=O)O)CCN(CC(=O)O)CC1` [BRU-2759], which EC50 is on record?
**A.** 10 µM

**Q.** `N=C(N)NCCC[C@@H](NC(=O)[C@H](Cc1c[nH]cn1)NC(=O)[C@H](CO)NC(=O)[C@H](Cc1c[nH]c2ccccc12)NC(=O)[C@H](Cc1c[nH]cn1)NC(=O)CNC(=O)CN1CCN(CC(=O)O)CCN(CC(=O)O)CCN(CC(=O)O)CC1)C(=O)N[C@@H](Cc1c[nH]c2ccccc12)C(=O)N[C@@H](Cc1ccc(C(=O)c2ccccc2)cc1)C(=O)N1CCC[C@H]1C(=O)NNC(N)=O` [BRU-2733] was tested. Which EC50 did it give?
**A.** 1.18 µM

**Q.** With `N=C(N)NCCC[C@H](NC(=O)[C@H]1Cc2ccccc2CN1C(=O)CNC(=O)CN1CCN(CC(=O)O)CCN(CC(=O)O)CCN(CC(=O)O)CC1)C(=O)N[C@@H](Cc1c[nH]c2ccccc12)C(=O)N[C@@H](CO)C(=O)N[C@@H](Cc1c[nH]cn1)C(=O)N[C@H](CCCNC(=N)N)C(=O)N[C@@H](Cc1c[nH]c2ccccc12)C(=O)N[C@@H](Cc1ccc(C(=O)c2ccccc2)cc1)C(=O)N1CCC[C@H]1C(=O)NNC(N)=O` [BRU-3067] as the molecule, how does the EC50 read?
**A.** 0.51 µM

**Q.** How did the EC50 turn out when `CN(CC(=O)N[C@@H](CCCCN)C(=O)N[C@@H](Cc1c[nH]c2ccccc12)C(=O)N[C@@H](CO)C(=O)N[C@@H](Cc1c[nH]cn1)C(=O)N[C@H](CCCNC(=N)N)C(=O)N[C@@H](Cc1c[nH]c2ccccc12)C(=O)N[C@@H](Cc1ccc(C(=O)c2ccccc2)cc1)C(=O)N1CCC[C@H]1C(=O)NNC(N)=O)C(=O)CN1CCN(CC(=O)O)CCN(CC(=O)O)CCN(CC(=O)O)CC1` [BRU-2871] ({DOTA}-[Sar]KWSH[dR]W[Bpa]P[azaGly]-NH2) was run?
**A.** 10 µM

Same assay, conditions: Table 8: N-substituted amino acid at position 1 and Gly as linker; in vitro binding on EFO-27 cells

**Q.** For `COCCN(CC(=O)N[C@@H](Cc1c[nH]cn1)C(=O)N[C@@H](Cc1c[nH]c2ccccc12)C(=O)N[C@@H](CO)C(=O)N[C@@H](Cc1c[nH]cn1)C(=O)N[C@H](CCCNC(=N)N)C(=O)N[C@@H](Cc1c[nH]c2ccccc12)C(=O)N[C@@H](Cc1ccc(C(=O)c2ccccc2)cc1)C(=O)N1CCC[C@H]1C(=O)NNC(N)=O)C(=O)CNC(=O)CN1CCN(CC(=O)O)CCN(CC(=O)O)CCN(CC(=O)O)CC1` [compound 2796], which EC50 is on record?
**A.** 0.34 µM

Same assay, conditions: Table 19: analogs used in the stabilization studies

**Q.** How did the EC50 turn out when “BRU-2994: DO3A10CM-Dnal2-R-W-S-H-r-W-Bpa4-Flp4-azaG” was run?
**A.** 0.6 µM

Same assay, conditions: read-out: EC50 μM; Underivatized LHRH peptides and LHRH peptides with chelator on N-terminus; EFO-27 cells

**Q.** For “BRU-2994: DO3A10CM-Dnal2-R-W-S-H-r-W-Bpa4-Flp4-azaG”, which EC50 is on record?
**A.** 0.6 µM
